For six molecules, AC50 results are on record in ChEMBL document CHEMBL5291721, “A preclinical secondary pharmacology resource illuminates target-adverse drug reaction associations of marketed drugs” (Nat Commun, 2023).

A value given as a limit tells only on which side of the number the result lay.

Targets include Adenosine receptor A2a (Homo sapiens, UniProt P29274); Vasopressin V2 receptor (Homo sapiens, UniProt P30518); Histamine H3 receptor (Homo sapiens, UniProt Q9Y5N1); Histamine H1 receptor (Homo sapiens, UniProt P35367); Vasopressin V1a receptor (Homo sapiens, UniProt P37288).
Test [1] has as its target T1, Alpha-2C adrenergic receptor (Homo sapiens, UniProt P18825).
T1 sequence (P18825 whole entry): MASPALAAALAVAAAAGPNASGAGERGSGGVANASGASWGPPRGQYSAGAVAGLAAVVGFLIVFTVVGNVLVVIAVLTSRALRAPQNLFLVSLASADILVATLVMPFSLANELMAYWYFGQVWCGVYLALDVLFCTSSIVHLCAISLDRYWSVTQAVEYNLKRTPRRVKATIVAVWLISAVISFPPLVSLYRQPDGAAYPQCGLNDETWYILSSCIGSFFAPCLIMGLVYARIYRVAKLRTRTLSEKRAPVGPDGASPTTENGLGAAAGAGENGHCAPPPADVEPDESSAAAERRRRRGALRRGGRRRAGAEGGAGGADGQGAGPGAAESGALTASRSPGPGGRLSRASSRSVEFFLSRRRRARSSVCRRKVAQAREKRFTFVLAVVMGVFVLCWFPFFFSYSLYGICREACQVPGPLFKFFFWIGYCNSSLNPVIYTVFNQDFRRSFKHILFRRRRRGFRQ
In kind it is functional.

Test [2] concerns the target Gamma-aminobutyric acid receptor subunit alpha-1 (Rattus norvegicus, UniProt P62813). It is filed as functional.
Test [3] addresses Kappa-type opioid receptor (Homo sapiens, UniProt P41145).
Another test concerns the target T2, Adenosine receptor A1 (Homo sapiens, UniProt P30542).
T2 sequence (P30542 whole entry): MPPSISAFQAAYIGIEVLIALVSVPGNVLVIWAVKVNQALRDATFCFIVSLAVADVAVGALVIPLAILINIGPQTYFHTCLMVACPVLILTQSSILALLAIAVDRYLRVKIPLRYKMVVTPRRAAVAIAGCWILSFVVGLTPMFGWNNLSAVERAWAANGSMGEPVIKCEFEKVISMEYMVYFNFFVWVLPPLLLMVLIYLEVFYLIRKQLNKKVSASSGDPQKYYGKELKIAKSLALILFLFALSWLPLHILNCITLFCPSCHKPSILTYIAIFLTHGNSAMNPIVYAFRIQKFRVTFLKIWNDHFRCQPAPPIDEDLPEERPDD

The target in test [4] is T3, 5-hydroxytryptamine receptor 2B (Homo sapiens, UniProt P41595). It is filed as functional, cell-based.
T3 sequence (P41595 whole entry): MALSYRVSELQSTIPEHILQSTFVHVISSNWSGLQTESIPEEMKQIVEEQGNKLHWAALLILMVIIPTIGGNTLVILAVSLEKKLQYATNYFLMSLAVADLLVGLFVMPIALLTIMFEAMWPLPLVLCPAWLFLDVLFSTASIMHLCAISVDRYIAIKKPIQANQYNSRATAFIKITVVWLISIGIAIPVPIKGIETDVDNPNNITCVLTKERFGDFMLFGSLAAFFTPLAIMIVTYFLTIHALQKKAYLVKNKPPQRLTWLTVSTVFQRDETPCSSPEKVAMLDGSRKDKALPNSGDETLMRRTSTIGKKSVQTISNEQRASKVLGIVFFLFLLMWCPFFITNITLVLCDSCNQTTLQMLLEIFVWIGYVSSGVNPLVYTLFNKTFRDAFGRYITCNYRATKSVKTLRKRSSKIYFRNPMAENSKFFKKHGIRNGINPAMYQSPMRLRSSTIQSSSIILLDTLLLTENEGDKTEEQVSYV
Test [5] has as its target T4, Alpha-2A adrenergic receptor (Homo sapiens, UniProt P08913).
T4 sequence (P08913 whole entry): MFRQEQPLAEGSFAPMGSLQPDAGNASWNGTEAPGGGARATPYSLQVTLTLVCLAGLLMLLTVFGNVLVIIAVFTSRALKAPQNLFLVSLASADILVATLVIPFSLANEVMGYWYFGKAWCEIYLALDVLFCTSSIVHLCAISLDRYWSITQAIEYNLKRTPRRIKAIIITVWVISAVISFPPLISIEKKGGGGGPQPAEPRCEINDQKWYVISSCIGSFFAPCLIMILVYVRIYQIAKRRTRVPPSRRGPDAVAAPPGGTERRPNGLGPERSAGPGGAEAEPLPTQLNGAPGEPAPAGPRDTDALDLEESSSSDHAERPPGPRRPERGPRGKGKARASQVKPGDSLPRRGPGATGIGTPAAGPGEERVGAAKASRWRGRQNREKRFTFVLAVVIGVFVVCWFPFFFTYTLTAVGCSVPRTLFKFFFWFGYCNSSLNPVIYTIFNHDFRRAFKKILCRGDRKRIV
It is filed as functional, cell-based.

Test [6] concerns the target Growth hormone secretagogue receptor type 1 (Homo sapiens, UniProt Q92847).
The target of the next test is T5, B2 bradykinin receptor (Homo sapiens, UniProt P30411).
T5 sequence (P30411 whole entry): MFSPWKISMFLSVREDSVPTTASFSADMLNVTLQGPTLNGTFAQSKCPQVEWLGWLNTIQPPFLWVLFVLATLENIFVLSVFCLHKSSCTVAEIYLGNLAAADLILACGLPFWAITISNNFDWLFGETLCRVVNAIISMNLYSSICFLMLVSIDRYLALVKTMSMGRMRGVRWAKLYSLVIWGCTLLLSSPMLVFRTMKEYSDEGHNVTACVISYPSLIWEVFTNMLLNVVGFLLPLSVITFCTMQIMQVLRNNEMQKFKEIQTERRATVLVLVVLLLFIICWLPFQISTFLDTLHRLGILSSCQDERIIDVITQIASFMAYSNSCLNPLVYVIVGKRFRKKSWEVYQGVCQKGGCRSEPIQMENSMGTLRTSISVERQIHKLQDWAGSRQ

Test [7] deals with Sodium-dependent noradrenaline transporter (Homo sapiens, UniProt P23975).
Sodium-dependent noradrenaline transporter, sequence (P23975 whole entry): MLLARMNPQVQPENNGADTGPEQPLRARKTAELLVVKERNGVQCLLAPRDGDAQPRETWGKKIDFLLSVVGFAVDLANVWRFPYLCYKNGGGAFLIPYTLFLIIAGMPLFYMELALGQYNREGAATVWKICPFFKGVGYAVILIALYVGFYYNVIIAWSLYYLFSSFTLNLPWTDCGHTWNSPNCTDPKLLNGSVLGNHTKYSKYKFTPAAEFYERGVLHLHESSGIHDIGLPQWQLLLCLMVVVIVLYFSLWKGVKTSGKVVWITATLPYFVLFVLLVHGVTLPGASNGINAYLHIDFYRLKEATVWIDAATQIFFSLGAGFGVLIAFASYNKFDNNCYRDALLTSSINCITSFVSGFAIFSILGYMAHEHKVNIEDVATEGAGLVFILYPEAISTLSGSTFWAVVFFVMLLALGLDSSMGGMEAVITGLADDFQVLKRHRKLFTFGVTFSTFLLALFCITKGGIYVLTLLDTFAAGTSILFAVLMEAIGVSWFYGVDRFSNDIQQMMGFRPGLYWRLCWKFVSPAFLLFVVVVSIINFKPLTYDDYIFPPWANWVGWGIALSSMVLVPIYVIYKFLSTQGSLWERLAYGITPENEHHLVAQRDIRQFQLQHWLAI
Test [8] has as its target T3, 5-hydroxytryptamine receptor 2B. It is filed as functional, cell-based. The source holds these as a separate data set.
In test [9] the target is Muscarinic acetylcholine receptor M3 (Homo sapiens, UniProt P20309).
Also: assay procedure not described here.

Histamine H3 receptor, sequence (Q9Y5N1 whole entry): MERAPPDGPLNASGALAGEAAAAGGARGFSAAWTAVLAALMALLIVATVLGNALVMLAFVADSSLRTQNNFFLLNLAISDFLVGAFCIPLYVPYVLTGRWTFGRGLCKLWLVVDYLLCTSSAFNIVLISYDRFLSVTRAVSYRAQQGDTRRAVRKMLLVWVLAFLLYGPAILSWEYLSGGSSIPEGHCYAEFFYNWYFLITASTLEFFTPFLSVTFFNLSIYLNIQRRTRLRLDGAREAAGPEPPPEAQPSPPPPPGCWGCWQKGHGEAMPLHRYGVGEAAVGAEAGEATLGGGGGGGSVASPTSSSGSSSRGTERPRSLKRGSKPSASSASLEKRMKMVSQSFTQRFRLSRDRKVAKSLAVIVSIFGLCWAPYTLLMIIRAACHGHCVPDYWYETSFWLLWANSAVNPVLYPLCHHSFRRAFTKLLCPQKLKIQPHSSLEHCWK
Vasopressin V2 receptor, sequence (P30518 whole entry): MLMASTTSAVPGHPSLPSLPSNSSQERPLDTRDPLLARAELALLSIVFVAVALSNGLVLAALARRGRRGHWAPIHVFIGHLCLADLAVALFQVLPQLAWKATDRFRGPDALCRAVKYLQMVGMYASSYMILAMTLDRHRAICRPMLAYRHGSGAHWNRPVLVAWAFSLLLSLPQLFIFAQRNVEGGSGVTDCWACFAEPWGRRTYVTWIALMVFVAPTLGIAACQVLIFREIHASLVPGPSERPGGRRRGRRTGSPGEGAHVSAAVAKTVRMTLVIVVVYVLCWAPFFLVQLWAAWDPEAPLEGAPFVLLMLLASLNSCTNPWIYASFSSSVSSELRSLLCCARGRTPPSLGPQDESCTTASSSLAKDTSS
Kappa-type opioid receptor, sequence (P41145 whole entry): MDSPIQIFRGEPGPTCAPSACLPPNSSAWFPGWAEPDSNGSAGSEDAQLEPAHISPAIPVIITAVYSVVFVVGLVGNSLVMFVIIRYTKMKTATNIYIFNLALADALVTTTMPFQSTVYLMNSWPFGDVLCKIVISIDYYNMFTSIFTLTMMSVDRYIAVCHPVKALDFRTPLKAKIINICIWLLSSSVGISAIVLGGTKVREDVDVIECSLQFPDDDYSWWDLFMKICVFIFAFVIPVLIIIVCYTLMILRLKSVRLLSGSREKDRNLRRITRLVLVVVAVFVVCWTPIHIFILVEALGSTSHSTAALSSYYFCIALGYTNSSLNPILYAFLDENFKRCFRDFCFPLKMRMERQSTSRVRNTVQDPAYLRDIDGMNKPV
Adenosine receptor A2a, sequence (P29274 whole entry): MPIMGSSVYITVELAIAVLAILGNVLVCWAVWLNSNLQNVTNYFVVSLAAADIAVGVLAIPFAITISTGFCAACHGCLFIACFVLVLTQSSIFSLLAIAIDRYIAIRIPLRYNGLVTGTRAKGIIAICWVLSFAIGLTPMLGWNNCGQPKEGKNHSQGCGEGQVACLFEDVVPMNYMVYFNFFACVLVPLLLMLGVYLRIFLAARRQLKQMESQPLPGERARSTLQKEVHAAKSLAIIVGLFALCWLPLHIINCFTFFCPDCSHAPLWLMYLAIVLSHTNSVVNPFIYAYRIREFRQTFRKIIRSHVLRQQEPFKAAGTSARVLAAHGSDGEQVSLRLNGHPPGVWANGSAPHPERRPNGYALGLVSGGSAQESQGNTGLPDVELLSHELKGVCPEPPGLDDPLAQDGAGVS
Vasopressin V1a receptor, sequence (P37288 whole entry): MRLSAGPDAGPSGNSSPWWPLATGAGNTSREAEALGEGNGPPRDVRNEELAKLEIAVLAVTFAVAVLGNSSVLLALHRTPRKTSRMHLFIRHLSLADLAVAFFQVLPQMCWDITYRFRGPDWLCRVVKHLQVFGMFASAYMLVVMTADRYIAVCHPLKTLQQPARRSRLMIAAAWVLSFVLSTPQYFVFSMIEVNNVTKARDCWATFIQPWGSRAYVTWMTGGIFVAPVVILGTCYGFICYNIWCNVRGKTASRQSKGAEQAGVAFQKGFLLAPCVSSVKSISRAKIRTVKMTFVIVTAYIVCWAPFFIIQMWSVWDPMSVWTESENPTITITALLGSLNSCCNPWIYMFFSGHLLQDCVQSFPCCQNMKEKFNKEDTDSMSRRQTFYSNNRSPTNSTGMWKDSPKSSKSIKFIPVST
Growth hormone secretagogue receptor type 1, sequence (Q92847 whole entry): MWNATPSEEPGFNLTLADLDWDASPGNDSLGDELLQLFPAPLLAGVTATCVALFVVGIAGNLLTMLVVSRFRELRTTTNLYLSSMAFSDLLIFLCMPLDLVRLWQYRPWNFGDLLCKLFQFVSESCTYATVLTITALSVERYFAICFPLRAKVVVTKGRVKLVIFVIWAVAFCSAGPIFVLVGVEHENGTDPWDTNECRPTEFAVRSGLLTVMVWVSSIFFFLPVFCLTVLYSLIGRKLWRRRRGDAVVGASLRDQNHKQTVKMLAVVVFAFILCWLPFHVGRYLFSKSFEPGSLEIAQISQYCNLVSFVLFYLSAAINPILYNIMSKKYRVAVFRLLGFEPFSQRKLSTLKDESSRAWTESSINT
Histamine H1 receptor, sequence (P35367 whole entry): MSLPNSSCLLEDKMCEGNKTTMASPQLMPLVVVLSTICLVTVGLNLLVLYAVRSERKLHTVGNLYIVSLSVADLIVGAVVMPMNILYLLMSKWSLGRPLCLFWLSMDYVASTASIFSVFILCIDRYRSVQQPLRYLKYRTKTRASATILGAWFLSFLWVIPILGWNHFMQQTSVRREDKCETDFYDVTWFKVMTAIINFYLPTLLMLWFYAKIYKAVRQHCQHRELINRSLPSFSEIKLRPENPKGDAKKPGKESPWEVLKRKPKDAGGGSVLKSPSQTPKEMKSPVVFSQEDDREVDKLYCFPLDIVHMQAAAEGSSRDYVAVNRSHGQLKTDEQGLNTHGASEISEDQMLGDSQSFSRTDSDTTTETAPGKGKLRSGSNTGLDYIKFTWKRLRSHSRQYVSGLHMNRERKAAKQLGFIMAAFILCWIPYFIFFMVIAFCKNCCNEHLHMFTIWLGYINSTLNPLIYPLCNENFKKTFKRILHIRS
Gamma-aminobutyric acid receptor subunit alpha-1, sequence (P62813 whole entry): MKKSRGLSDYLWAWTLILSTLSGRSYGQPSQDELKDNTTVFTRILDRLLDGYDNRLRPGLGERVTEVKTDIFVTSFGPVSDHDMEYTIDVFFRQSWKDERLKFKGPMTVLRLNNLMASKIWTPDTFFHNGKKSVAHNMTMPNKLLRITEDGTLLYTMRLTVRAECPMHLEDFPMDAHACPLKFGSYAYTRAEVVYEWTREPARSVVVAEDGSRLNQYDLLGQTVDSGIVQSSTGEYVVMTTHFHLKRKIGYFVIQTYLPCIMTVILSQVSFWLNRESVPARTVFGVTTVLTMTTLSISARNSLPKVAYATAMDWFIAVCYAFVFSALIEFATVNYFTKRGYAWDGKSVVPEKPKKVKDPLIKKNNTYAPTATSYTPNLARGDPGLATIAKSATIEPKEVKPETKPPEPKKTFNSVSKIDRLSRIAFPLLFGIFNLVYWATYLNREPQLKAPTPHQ

Broadly, the AC50 is the midpoint of the concentration-response curve, whichever way the signal moves. For the molecule `NCC[C@H](O)C(=O)N[C@@H]1C[C@H](N)[C@@H](O[C@H]2O[C@H](CN)[C@@H](O)[C@H](O)[C@H]2O)[C@H](O)[C@H]1O[C@H]1O[C@H](CO)[C@@H](O)[C@H](N)[C@H]1O` [AMIKACIN], the AC50 (in test [1]; in test [2]; at Adenosine receptor A2a; in test [3]; on Adenosine receptor A1; in test [4]) was above 10 µM each time. Also, the AC50 (in test [5]; in [6]; on Vasopressin V2 receptor; on B2 bradykinin receptor; in [7]; in test [8]) was above 10 µM each time.

For the molecule `C#C[C@]1(O)CC[C@H]2[C@@H]3CCC4=Cc5oncc5C[C@]4(C)[C@H]3CC[C@@]21C` [DANAZOL], the AC50 is above 10 µM in test [1]; above 10 µM in test [2]; above 30 µM on Adenosine receptor A2a; above 10 µM on Histamine H3 receptor; above 10 µM in test [3]; above 30 µM on Adenosine receptor A1. The AC50 (in test [4]; in test [5]; in test [6]; at Vasopressin V2 receptor; at B2 bradykinin receptor; in test [8]) was above 10 µM each time.

As for `CC1(C)O[C@@H]2C[C@H]3[C@@H]4CCC5=CC(=O)C=C[C@]5(C)[C@H]4[C@@H](O)C[C@]3(C)[C@]2(C(=O)CO)O1` [DESONIDE], the AC50 at Histamine H1 receptor is above 10 µM; in test [9] it was above 30 µM; in test [1] it was above 10 µM; on Vasopressin V1a receptor it was above 10 µM; in [2] it was above 10 µM; on Adenosine receptor A2a it was above 10 µM. Further, the AC50 (in [3]; on Adenosine receptor A1; in test [4]; in test [5]; in test [6]; at Vasopressin V2 receptor) was above 10 µM each time. Besides, the AC50 (at B2 bradykinin receptor; in [7]; in test [8]) was above 10 µM throughout.

In the case of `CCc1c(Cl)c(O)c(Cl)c(O)c1C(=O)O[C@H]1[C@H](O)[C@H](OC)[C@H](OC/C2=C\C=C\C[C@H](O)/C(C)=C/[C@H](CC)[C@@H](O[C@@H]3OC(C)(C)[C@@H](OC(=O)C(C)C)[C@H](O)[C@@H]3O)/C(C)=C/C(C)=C/C[C@@H]([C@@H](C)O)OC2=O)O[C@@H]1C` [FIDAXOMICIN], the AC50 on Histamine H1 receptor was above 30 µM; in test [1], above 30 µM; on Vasopressin V1a receptor, above 10 µM; in test [2], above 10 µM; at Adenosine receptor A2a, above 30 µM; on Histamine H3 receptor, above 10 µM. The AC50 in test [3] was above 10 µM; at Adenosine receptor A1 it was above 30 µM; in test [4], above 30 µM; in test [6] it was above 30 µM; on Vasopressin V2 receptor, above 30 µM; at B2 bradykinin receptor, above 30 µM. In addition, the AC50 in [7] and in [8] was above 30 µM in each case.

For the molecule `CC(C)Cn1cnc2c(N)nc3ccccc3c21` [IMIQUIMOD], the AC50 in test [1] is above 10 µM; in [2] it was above 10 µM; on Adenosine receptor A2a, 19.5 µM; on Histamine H3 receptor, above 10 µM; in [3] it was above 10 µM; at Adenosine receptor A1 it was above 10 µM. The AC50 is 13.8 µM in test [4]; above 10 µM in test [5]; above 10 µM in [6]; above 10 µM at Vasopressin V2 receptor; above 10 µM on B2 bradykinin receptor; above 30 µM in test [7]. In [8], this molecule yielded an AC50 of 19 µM.

Regarding `CNC(C)CCC=C(C)C` (centres undefined) [ISOMETHEPTENE], the AC50 (on Vasopressin V1a receptor; on Adenosine receptor A2a; on Histamine H3 receptor; at Adenosine receptor A1; in test [6]; at Vasopressin V2 receptor) was above 30 µM throughout. Moreover, the concentration at half-maximal activity (AC50) (at B2 bradykinin receptor; in test [7]) was above 30 µM throughout.
